Results: patent US20220016115A1, “USP19 INHIBITORS FOR USE IN THERAPY” (ALMAC DISCOVERY LIMITED, priority 2018, published 2022)

Biological target: T1, USP19 (Homo sapiens, UniProt O94966)
T1 sequence (O94966 1-1318): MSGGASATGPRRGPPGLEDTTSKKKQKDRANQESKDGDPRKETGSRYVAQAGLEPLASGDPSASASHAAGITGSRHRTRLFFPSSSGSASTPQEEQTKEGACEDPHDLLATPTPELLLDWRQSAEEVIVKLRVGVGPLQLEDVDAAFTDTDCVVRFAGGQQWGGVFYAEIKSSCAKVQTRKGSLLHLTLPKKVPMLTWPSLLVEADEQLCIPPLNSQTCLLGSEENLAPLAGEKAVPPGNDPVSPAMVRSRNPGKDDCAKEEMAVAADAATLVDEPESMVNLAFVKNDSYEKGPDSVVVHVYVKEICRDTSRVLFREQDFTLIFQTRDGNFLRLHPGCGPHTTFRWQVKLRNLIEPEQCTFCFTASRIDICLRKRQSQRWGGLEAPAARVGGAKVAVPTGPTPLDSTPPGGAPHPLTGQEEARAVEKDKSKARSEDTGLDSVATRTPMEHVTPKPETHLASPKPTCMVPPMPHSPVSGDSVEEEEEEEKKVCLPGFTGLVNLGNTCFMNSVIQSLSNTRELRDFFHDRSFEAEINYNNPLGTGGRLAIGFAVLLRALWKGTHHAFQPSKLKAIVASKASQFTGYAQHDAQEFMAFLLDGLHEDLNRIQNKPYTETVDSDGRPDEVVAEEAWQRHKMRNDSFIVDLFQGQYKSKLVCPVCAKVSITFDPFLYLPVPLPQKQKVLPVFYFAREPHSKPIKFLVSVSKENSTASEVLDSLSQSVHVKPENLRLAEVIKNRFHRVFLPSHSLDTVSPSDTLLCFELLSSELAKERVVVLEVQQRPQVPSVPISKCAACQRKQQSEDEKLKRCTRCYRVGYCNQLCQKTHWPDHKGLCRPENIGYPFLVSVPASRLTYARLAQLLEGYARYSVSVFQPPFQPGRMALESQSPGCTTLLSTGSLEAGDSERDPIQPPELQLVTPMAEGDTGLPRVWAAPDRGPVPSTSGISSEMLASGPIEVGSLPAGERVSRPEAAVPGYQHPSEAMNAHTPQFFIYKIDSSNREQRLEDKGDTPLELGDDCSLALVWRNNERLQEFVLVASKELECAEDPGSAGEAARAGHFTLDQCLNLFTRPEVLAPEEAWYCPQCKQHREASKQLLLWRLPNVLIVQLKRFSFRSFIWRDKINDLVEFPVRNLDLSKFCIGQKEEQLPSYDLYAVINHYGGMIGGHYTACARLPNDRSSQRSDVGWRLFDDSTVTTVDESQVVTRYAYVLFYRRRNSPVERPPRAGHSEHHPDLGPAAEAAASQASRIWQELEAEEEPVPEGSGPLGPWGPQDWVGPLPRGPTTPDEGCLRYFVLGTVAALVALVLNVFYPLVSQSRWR
Experiment: USP19 fluorescence polarisation (FP) homogeneous assay
Format: biochemical
Parameters: Full-length USP19 was purchased from Boston Biochem (E-576); purchased Boston Biochem E-576
Details: Ubiquitin-Lys-TAMRA substrate, full-length USP19 2.5 nM, average of at least two duplicate experiments
Method: Unless otherwise stated, all other reagents were purchased from Sigma. Enzymatic reactions were conducted in black flat bottom polystyrene 384-well plates (Nunc) and 30 μL total volume. […] Inhibitors were stored as 10 mM DMSO stocks in an inert environment (low humidity, dark, low oxygen, room temperature) using the Storage Pod System and serial dilutions were prepared in buffer just prior to the assay (from 200 μM to 2 μM, 8-18 data point curve). Following incubation at RT for 30 min, the enzymatic reactions were initiated by dispensing the Ub substrate (500 nM, 10 μL). FP was measured every 15 min over a period of 90 min (within the linear range of the assay) using a Synergy 4 plate reader (BioTek) exciting at 530 nm and measuring the amount of parallel and perpendicular light at 575 nm. The FP signal was subsequently normalised to the no compound control.

`C[C@H](CC1CCC1)C(=O)N1CC[C@@](O)(Cn2cc(C(=O)N3CCNCC3)c(-c3ccccc3F)cc2=O)C2(CCCC2)C1` [Example 224, 1-(((S)-7-((R)-3-Cyclobutyl-2-methylpropanoyl)-10-hydroxy-7-azaspiro[4.5]decan-10-yl)methyl)-4-(2-fluorophenyl)-5-(piperazine-1-carbonyl)pyridin-2(1 H)-one] and `C[C@H](CC1CCC1)C(=O)N1CC[C@@](O)(Cn2cc(C(=O)N(C)C)c(-c3ccccc3)cc2=O)C2(CCCC2)C1` [Example 214, 1-(((S)-7-((R)-3-Cyclobutyl-2-methylpropanoyl)-10-hydroxy-7-azaspiro[4.5]decan-10-yl)methyl)-N,N-dimethyl-6-oxo-4-phenyl-1,6-dihydropyridine-3-carboxamide] cannot be ordered by IC50: less than 500 nM for the first, less than 500 nM for the second.

`C[C@H](CC1CCCCC1)C(=O)N1CC[C@@](O)(Cn2cc(C(=O)N(C)C)c(-c3ccccc3)cc2=O)C(C)(C)C1` [Example 121, 1-(((S)-1-((R)-3-Cyclohexyl-2-methylpropanoyl)-4-hydroxy-3,3-dimethylpiperidin-4-yl)methyl)-N,N-dimethyl-6-oxo-4-phenyl-1,6-dihydropyridine-3-carboxamide] and `C[C@H](CC1CCCCC1)C(=O)N1CC[C@@](O)(Cn2cc(C(=O)N3CCNC[C@H]3CO)c(-c3ccccc3)cc2=O)C(C)(C)C1` [Example 208, 1-(((S)-1-((R)-3-Cyclohexyl-2-methylpropanoyl)-4-hydroxy-3,3-dimethylpiperidin-4-yl)methyl)-5-((S)-2-(hydroxymethyl)piperazine-1-carbonyl)-4-phenylpyridin-2(1H)-one] cannot be ordered by IC50: less than 500 nM for the first, less than 500 nM for the second.

`C[C@H](CC(F)(F)F)C(=O)N1CC[C@@](O)(Cn2cnc(-c3ccccc3)cc2=O)C2(CCCC2)C1` [Example 255, 3-(((S)-10-Hydroxy-7-((R)-4,4,4-trifluoro-2-methylbutanoyl)-7-azaspiro[4.5]decan-10-yl)methyl)-6-phenylpyrimidin-4(3H)-one] and `C[C@H](CC(F)(F)F)C(=O)N1CC[C@@](O)(Cn2cnc(-c3ccccc3F)cc2=O)C2(CCCC2)C1` [Example 256, 6-(2-Fluorophenyl)-3-(((S)-10-hydroxy-7-((R)-4,4,4-trifluoro-2-methylbutanoyl)-7-azaspiro[4.5]decan-10-yl)methyl)pyrimidin-4(3H)-one] cannot be ordered by IC50: less than 500 nM for the first, less than 500 nM for the second.

`C[C@H](CC1CCCCC1)C(=O)N1CCC(O)(Cn2cc(C(=O)N(C)C)c(-c3cccc(CO)c3)cc2=O)C2(CCCC2)C1` (stereo partly drawn) [Example 156, 1-((7-((R)-3-Cyclohexyl-2-methylpropanoyl)-10-hydroxy-7-azaspiro[4.5]decan-10-yl)methyl)-4-(3-(hydroxymethyl)phenyl)-N,N-dimethyl-6-oxo-1,6-dihydropyridine-3-carboxamide] and `CN(C)C(=O)c1cn(CC2(O)CCN(C(=O)[C@@H]3C[C@@H]3c3ccccc3)CC23CCCC3)c(=O)cc1-c1ccccc1` (stereo partly drawn) [Example 174, 1-((10-Hydroxy-7-((1R,2S)-2-phenylcyclopropane-1-carbonyl)-7-azaspiro[4.5]decan-10-yl)methyl)-N,N-dimethyl-6-oxo-4-phenyl-1,6-dihydropyridine-3-carboxamide] cannot be ordered by IC50: less than 500 nM for the first, less than 500 nM for the second.

First: O=C(c1cn(C[C@]2(O)CCN(C(=O)[C@H](CO)CC(F)(F)F)CC23CCCC3)c(=O)cc1-c1ccccc1)N1CCOCC1 [Example 248, 1-(((S)-10-Hydroxy-7-((S)-4,4,4-trifluoro-2-(hydroxymethyl)butanoyl)-7-azaspiro[4.5]decan-10-yl)methyl)-5-(morpholine-4-carbonyl)-4-phenylpyridin-2(1H)-one]
Second: C[C@H](CC(=O)N1CCC(O)(Cn2cnc(-c3ccccc3)cc2=O)CC1(C)C)c1ccccc1 (mixture of isomers) [Example 61, 3-(((R)-4-Hydroxy-2,2-dimethyl-1-((R)-3-phenylbutanoyl)piperidin-4-yl)methyl)-6-phenylpyrimidin-4(3H)-one and 3-(((S)-4-Hydroxy-2,2-dimethyl-1-((R)-3-phenylbutanoyl)piperidin-4-yl)methyl)-6-phenylpyrimidin-4(3H)-one]
The IC50 of the first is lower: less than 500 nM for the first, 50000 to 250000 nM for the second.
